Earlier results in patent US20070117788A1, “Combination of a dopamine D2-receptor agonist and tiotropium or a derivative therof for treating obstructive airways and other inflammatory diseases” (Boehringer Ingelheim Pharma GmbH & Co. KG, priority 2001, published 2007).

Key:
δ and ε protein kinase C = conditions: with ethanol, neural cells in culture

Row | SMILES | anti-allergic effect (antigen-challenged pig) | rhinorrhea (antigen-challenged pig) | translocation of δ and ε protein kinase C (δ and ε protein kinase C)
1 | CCCn1c(=O)c2c(C)nc(CC)n2c2nc(OC)ccc21 [Example D-22888] | strong anti-allergic affect | inhibit rhinorrhea | 
2 | Br.CCCN1CCc2cc(O)cc3c2[C@H]1Cc1ccc(O)c(O)c1-3 [R(−)-2,10,11-trihydroxy-N-propyl-noraporphine hydrobromide] |  |  | acts synergistically with ethanol to cause translocation
